Literature values in US20110091889A1, “CENTROSOME-ASSAY” (4SC AG, priority 2008, published 2011).

Target: T1, Eg5 (Homo sapiens, UniProt P52732)
T1 sequence (P52732 1-1056): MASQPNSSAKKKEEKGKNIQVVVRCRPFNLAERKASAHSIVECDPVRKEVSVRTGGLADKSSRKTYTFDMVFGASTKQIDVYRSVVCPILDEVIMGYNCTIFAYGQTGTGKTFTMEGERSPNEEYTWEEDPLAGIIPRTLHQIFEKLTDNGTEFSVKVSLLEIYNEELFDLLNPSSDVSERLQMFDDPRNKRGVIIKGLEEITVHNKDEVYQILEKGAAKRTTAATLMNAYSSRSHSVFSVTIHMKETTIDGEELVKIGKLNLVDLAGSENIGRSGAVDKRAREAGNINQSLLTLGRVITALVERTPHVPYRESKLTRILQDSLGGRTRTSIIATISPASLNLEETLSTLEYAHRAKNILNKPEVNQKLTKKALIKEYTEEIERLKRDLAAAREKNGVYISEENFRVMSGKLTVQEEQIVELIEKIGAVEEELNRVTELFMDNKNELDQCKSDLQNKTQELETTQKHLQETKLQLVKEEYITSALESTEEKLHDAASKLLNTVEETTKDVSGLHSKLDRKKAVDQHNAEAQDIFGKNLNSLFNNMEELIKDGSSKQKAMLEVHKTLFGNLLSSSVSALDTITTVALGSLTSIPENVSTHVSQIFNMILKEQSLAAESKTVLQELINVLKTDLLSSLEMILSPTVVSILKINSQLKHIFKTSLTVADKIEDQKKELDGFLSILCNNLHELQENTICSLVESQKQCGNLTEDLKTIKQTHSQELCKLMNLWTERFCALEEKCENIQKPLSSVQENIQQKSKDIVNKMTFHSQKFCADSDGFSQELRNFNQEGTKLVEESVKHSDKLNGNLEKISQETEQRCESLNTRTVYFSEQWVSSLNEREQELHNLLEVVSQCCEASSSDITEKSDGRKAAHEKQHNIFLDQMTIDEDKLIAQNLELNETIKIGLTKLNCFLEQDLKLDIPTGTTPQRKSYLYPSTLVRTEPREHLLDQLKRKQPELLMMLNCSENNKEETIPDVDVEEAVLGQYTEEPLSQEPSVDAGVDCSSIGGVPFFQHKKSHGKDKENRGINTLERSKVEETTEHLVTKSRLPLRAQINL
Details: as compared to the (R)-enantiomer; in vitro and in vivo

- relative potency as inhibitor of Eg5 activity: more potent inhibitor of Eg5 activity
Compound: CCOC(=O)C1=C(C)NC(=S)N[C@H]1c1cccc(O)c1 [(S)-monastrol]
